{"source": "paper PMC10211317", "about": "“Identification of ARUK2002821 as an isoform-selective PI5P4Kα inhibitor” (RSC Medicinal Chemistry, 2023)", "experiment_in_all_cases": "Premier Screen kinase panel (MRC PPU)", "assay_type_in_all_cases": "biochemical", "key": {"Aurora A": {"molecular_target": "Aurora A (Homo sapiens, UniProt O14965)", "conditions": "Aurora A (Entrez AURKA), read-out: Residual activity (%)", "protocol": "(§1) room temperature with shaking for 30 minutes. The kinase concentration in the eluates was measured by qPCR.\n(§2) using ADP-GloTM assay at the MRC PPU International Centre for Kinase Profiling, University of Dundee.\n(§3) Conducted by MRC PPU International Centre\n(§4) Conducted by MRC PPU International Centre for […]"}, "BTK": {"molecular_target": "BTK (Homo sapiens, UniProt Q06187)", "conditions": "BTK (Entrez BTK), read-out: Residual activity (%)", "protocol": "as §1, §2, §3, §4"}, "CAMKKb": {"molecular_target": "CAMKKb (Homo sapiens, UniProt Q96RR4)", "sequence (Q96RR4 whole entry)": "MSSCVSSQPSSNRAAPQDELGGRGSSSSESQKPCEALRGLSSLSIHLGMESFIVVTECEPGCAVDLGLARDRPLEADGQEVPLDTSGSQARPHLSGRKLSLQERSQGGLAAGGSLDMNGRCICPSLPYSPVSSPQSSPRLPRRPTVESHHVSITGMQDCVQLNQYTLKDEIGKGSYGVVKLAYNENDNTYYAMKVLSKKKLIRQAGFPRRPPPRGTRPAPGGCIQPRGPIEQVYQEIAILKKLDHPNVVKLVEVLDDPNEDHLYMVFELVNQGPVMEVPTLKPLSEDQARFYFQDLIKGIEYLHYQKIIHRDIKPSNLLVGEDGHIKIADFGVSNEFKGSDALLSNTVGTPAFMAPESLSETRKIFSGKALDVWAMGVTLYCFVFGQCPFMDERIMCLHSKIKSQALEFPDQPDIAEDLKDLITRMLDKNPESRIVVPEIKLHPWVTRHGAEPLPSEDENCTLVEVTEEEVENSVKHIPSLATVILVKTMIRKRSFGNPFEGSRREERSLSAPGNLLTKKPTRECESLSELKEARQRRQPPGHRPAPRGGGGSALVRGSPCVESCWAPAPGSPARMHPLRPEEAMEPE", "conditions": "CAMKKb (Entrez CAMKK2), read-out: Residual activity (%)", "protocol": "as §1, §2, §3, §4"}, "CDK2-Cyclin A": {"molecular_target": "CDK2-Cyclin A (Homo sapiens, UniProt P24941)", "conditions": "CDK2-Cyclin A (Entrez CDK2 + CCNA2), read-out: Residual activity (%)", "protocol": "as §1, §2, §3, §4"}, "DDR2": {"molecular_target": "DDR2 (Homo sapiens, UniProt Q16832)", "conditions": "DDR2 (Entrez DDR2), read-out: Residual activity (%)", "protocol": "as §1, §2, §3, §4"}, "DYRK3": {"molecular_target": "DYRK3 (Homo sapiens, UniProt O43781)", "conditions": "DYRK3 (Entrez DYRK3), read-out: Residual activity (%)", "protocol": "as §1, §2, §3, §4"}, "EPH-A2": {"molecular_target": "EPH-A2 (Homo sapiens, UniProt P29317)", "conditions": "EPH-A2 (Entrez EPHA2), read-out: Residual activity (%)", "protocol": "as §1, §2, §3, §4"}, "EPH-B1": {"molecular_target": "EPH-B1 (Homo sapiens, UniProt P54762)", "conditions": "EPH-B1 (Entrez EPHB1), read-out: Residual activity (%)", "protocol": "as §1, §2, §3, §4"}, "GCK": {"molecular_target": "GCK (Homo sapiens, UniProt Q12851)", "conditions": "read-out: Residual activity (%)", "protocol": "as §1, §2, §3, §4"}, "HIPK2": {"molecular_target": "HIPK2 (Homo sapiens, UniProt Q9H2X6)", "sequence (Q9H2X6 whole entry)": "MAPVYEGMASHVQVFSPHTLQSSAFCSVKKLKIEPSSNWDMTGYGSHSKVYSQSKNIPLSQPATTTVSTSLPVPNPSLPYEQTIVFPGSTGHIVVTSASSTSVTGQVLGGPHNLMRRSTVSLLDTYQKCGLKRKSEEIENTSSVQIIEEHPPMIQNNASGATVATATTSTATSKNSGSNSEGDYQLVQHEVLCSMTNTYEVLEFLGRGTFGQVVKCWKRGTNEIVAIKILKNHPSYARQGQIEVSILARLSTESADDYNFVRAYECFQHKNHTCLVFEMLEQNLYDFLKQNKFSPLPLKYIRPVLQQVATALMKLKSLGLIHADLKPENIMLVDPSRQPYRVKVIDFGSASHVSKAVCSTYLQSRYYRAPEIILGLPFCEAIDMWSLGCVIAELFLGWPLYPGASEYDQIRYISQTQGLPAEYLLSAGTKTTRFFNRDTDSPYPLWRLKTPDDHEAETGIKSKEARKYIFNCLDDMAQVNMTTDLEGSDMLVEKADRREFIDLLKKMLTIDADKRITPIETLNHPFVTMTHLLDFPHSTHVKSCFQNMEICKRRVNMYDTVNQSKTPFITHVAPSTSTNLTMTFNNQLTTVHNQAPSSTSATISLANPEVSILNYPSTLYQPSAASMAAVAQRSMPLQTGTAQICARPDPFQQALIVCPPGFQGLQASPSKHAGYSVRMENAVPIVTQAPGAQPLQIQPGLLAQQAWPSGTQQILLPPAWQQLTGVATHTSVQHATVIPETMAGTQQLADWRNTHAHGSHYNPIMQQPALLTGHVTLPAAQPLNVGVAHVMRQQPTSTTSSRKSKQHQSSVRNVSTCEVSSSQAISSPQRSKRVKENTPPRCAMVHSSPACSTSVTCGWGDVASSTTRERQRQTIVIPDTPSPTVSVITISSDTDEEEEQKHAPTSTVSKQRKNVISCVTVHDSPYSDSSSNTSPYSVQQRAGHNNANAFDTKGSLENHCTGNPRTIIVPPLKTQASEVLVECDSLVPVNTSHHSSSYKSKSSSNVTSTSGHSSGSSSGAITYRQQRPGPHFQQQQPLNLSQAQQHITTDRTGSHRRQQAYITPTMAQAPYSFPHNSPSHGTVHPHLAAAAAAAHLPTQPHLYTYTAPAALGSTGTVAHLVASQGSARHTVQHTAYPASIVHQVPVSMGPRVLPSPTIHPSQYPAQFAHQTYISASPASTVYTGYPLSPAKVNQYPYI", "conditions": "HIPK2 (Entrez HIPK2), read-out: Residual activity (%)", "protocol": "as §1, §2, §3, §4"}, "IR": {"molecular_target": "IR (Homo sapiens, UniProt P06213)", "sequence (P06213 28-1382)": "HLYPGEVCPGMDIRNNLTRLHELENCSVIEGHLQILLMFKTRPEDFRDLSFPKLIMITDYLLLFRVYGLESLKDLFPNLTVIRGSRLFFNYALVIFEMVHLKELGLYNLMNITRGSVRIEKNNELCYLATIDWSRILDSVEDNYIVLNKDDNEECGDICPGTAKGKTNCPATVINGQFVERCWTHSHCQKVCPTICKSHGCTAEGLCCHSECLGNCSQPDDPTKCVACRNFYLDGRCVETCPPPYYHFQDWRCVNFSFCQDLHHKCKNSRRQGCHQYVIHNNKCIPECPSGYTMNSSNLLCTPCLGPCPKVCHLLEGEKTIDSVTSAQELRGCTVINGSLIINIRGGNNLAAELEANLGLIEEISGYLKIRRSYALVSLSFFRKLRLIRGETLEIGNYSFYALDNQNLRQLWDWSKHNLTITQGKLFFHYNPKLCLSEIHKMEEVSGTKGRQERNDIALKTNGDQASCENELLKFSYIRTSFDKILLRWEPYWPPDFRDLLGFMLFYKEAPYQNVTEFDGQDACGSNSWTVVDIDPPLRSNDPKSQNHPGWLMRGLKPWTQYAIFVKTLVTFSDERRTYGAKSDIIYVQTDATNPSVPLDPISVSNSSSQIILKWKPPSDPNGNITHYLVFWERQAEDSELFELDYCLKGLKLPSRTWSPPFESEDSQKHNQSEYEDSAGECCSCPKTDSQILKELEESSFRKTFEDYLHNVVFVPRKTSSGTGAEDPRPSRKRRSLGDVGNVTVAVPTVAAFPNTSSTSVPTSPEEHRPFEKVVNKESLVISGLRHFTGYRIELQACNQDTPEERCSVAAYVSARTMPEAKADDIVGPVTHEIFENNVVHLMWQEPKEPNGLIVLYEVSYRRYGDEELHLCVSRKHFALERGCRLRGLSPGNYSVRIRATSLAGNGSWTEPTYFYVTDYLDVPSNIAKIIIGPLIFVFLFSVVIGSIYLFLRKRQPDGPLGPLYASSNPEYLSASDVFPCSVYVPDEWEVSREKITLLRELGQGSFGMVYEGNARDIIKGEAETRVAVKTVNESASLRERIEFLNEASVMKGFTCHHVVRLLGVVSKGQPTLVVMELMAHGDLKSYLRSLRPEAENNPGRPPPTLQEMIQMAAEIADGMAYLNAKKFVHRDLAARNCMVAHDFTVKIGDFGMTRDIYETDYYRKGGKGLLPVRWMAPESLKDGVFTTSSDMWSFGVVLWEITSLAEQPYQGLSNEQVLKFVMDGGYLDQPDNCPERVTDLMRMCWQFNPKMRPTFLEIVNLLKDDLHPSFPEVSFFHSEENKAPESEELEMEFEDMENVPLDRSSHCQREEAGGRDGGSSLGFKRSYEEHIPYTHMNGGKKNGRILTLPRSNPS", "conditions": "IR (Entrez INSR), read-out: Residual activity (%)", "protocol": "as §1, §2, §3, §4"}, "IRAK1": {"molecular_target": "IRAK1 (Homo sapiens, UniProt P51617)", "conditions": "IRAK1 (Entrez IRAK1), read-out: Residual activity (%)", "protocol": "as §1, §2, §3, §4"}, "IRAK4": {"molecular_target": "IRAK4 (Homo sapiens, UniProt Q9NWZ3)", "conditions": "IRAK4 (Entrez IRAK4), read-out: Residual activity (%)", "protocol": "as §1, §2, §3, §4"}, "MAP4K5": {"molecular_target": "MAP4K5 (Homo sapiens, UniProt Q9Y4K4)", "sequence (Q9Y4K4 whole entry)": "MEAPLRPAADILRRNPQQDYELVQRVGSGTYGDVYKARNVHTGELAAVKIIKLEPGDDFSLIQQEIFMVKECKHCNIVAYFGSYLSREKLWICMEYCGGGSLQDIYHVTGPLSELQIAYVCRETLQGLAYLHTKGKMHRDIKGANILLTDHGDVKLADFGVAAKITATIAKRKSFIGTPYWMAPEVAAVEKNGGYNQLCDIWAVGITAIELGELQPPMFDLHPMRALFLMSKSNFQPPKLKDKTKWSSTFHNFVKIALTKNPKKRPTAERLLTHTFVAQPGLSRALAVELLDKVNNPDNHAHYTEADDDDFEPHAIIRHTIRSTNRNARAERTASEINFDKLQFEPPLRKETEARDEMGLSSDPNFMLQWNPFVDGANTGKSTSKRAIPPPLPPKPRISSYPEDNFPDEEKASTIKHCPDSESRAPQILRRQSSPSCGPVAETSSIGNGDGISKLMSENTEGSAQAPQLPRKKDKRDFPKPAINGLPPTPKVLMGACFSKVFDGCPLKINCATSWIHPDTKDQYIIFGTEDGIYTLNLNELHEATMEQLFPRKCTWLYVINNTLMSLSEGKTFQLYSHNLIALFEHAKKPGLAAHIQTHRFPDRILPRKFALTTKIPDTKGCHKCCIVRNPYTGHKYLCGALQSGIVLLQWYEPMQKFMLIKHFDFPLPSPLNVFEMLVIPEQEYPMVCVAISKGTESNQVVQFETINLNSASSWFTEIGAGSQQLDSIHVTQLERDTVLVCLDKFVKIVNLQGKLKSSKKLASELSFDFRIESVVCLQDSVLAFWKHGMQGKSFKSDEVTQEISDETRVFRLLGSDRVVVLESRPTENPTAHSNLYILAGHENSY", "conditions": "MAP4K5 (Entrez MAP4K5), read-out: Residual activity (%)", "protocol": "as §1, §2, §3, §4"}, "MEKK1": {"molecular_target": "MEKK1 (Homo sapiens, UniProt Q13233)", "conditions": "MEKK1 (Entrez MAP3K1), read-out: Residual activity (%)", "protocol": "as §1, §2, §3, §4"}, "MLK1": {"molecular_target": "MLK1 (Homo sapiens, UniProt P80192)", "conditions": "MLK1 (Entrez MAP3K9), read-out: Residual activity (%)", "protocol": "as §1, §2, §3, §4"}, "MNK1": {"molecular_target": "MNK1 (Homo sapiens, UniProt Q9BUB5)", "conditions": "MNK1 (Entrez MKNK1), read-out: Residual activity (%)", "protocol": "as §1, §2, §3, §4"}, "MNK2": {"molecular_target": "MNK2 (Homo sapiens, UniProt Q9HBH9)", "sequence (Q9HBH9 whole entry)": "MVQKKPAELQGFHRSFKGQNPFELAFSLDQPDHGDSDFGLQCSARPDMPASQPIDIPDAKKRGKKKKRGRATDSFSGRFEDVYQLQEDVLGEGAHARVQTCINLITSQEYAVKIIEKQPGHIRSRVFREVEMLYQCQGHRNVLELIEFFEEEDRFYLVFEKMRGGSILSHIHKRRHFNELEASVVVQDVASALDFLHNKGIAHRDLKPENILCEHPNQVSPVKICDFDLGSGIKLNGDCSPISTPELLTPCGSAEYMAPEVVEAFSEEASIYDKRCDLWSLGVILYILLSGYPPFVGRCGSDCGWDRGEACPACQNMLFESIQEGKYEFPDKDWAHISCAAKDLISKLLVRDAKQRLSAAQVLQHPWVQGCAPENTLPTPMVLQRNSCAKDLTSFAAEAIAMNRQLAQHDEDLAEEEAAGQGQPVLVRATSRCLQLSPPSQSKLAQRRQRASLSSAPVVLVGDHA", "conditions": "MNK2 (Entrez MKNK2), read-out: Residual activity (%)", "protocol": "as §1, §2, §3, §4"}, "NEK2a": {"molecular_target": "NEK2a (Homo sapiens, UniProt P51955)", "conditions": "NEK2a (Entrez NEK2), read-out: Residual activity (%)", "protocol": "as §1, §2, §3, §4"}, "PAK4": {"molecular_target": "PAK4 (Homo sapiens, UniProt O96013)", "conditions": "PAK4 (Entrez PAK4), read-out: Residual activity (%)", "protocol": "as §1, §2, §3, §4"}, "PDGFRA": {"molecular_target": "PDGFRA (Homo sapiens, UniProt P16234)", "conditions": "PDGFRA (Entrez PDGFRA), read-out: Residual activity (%)", "protocol": "as §1, §2, §3, §4"}, "PKBa": {"molecular_target": "PKBa (Homo sapiens, UniProt P31749)", "conditions": "PKBa (Entrez AKT1), read-out: Residual activity (%)", "protocol": "as §1, §2, §3, §4"}, "PLK1": {"molecular_target": "PLK1 (Homo sapiens, UniProt P53350)", "conditions": "PLK1 (Entrez PLK1), read-out: Residual activity (%)", "protocol": "as §1, §2, §3, §4"}, "PRK2": {"molecular_target": "PRK2 (Homo sapiens, UniProt Q16513)", "conditions": "PRK2 (Entrez PKN2), read-out: Residual activity (%)", "protocol": "as §1, §2, §3, §4"}, "RIPK2": {"molecular_target": "RIPK2 (Homo sapiens, UniProt O43353)", "conditions": "RIPK2 (Entrez RIPK2), read-out: Residual activity (%)", "protocol": "as §1, §2, §3, §4"}, "RSK1": {"molecular_target": "RSK1 (Homo sapiens, UniProt Q15418)", "conditions": "RSK1 (Entrez RPS6KA1), read-out: Residual activity (%)", "protocol": "as §1, §2, §3, §4"}, "S6K1": {"molecular_target": "S6K1 (Homo sapiens, UniProt P23443)", "conditions": "S6K1 (Entrez RPS6KB1), read-out: Residual activity (%)", "protocol": "as §1, §2, §3, §4"}, "SRPK1": {"molecular_target": "SRPK1 (Homo sapiens, UniProt Q96SB4)", "conditions": "SRPK1 (Entrez SRPK1), read-out: Residual activity (%)", "protocol": "as §1, §2, §3, §4"}, "SmMLCK": {"molecular_target": "SmMLCK (Homo sapiens, UniProt Q15746)", "conditions": "SmMLCK (Entrez MYLK), read-out: Residual activity (%)", "protocol": "as §1, §2, §3, §4"}, "TAO1": {"molecular_target": "TAO1 (Homo sapiens, UniProt Q7L7X3)", "conditions": "TAO1 (Entrez TAOK1), read-out: Residual activity (%)", "protocol": "as §1, §2, §3, §4"}, "TGFBR1": {"molecular_target": "TGFBR1 (Homo sapiens, UniProt P36897)", "sequence (P36897 34-503)": "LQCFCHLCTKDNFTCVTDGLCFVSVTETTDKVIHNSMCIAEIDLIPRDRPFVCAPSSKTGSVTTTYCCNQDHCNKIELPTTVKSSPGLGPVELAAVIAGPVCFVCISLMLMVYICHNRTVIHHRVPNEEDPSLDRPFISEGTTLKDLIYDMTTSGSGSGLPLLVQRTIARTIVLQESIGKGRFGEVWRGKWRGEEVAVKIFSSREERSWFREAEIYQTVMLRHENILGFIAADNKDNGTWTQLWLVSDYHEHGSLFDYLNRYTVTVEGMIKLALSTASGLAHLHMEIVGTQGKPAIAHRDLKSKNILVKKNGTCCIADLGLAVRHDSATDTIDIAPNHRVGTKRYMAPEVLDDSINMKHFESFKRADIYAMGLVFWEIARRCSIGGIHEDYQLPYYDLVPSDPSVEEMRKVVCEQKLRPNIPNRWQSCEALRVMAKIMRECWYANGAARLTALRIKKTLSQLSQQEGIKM", "conditions": "TGFBR1 (Entrez TGFBR1), read-out: Residual activity (%)", "protocol": "as §1, §2, §3, §4"}}}
{"smiles": "COc1ccc(Nc2ncnc3c2ccn3-c2ccc(C)c(C)c2)cc1Cl", "note": "[compound 36]", "values": [{"measurement": "remaining activity at 1 µM", "setting": "Aurora A", "result": 81, "unit": "%"}, {"measurement": "remaining activity at 1 µM", "setting": "BTK", "result": 99, "unit": "%"}, {"measurement": "remaining activity at 1 µM", "setting": "CAMKKb", "result": 96, "unit": "%"}, {"measurement": "remaining activity at 1 µM", "setting": "CDK2-Cyclin A", "result": 100, "unit": "%"}, {"measurement": "remaining activity at 1 µM", "setting": "DDR2", "result": 115, "unit": "%"}, {"measurement": "remaining activity at 1 µM", "setting": "DYRK3", "result": 68, "unit": "%"}, {"measurement": "remaining activity at 1 µM", "setting": "EPH-A2", "result": 83, "unit": "%"}, {"measurement": "remaining activity at 1 µM", "setting": "EPH-B1", "result": 126, "unit": "%"}, {"measurement": "remaining activity at 1 µM", "setting": "GCK", "result": 105, "unit": "%"}, {"measurement": "remaining activity at 1 µM", "setting": "HIPK2", "result": 90, "unit": "%"}, {"measurement": "remaining activity at 1 µM", "setting": "IR", "result": 108, "unit": "%"}, {"measurement": "remaining activity at 1 µM", "setting": "IRAK1", "result": 98, "unit": "%"}, {"measurement": "remaining activity at 1 µM", "setting": "IRAK4", "result": 113, "unit": "%"}, {"measurement": "remaining activity at 1 µM", "setting": "MAP4K5", "result": 80, "unit": "%"}, {"measurement": "remaining activity at 1 µM", "setting": "MEKK1", "result": 115, "unit": "%"}, {"measurement": "remaining activity at 1 µM", "setting": "MLK1", "result": 70, "unit": "%"}, {"measurement": "remaining activity at 1 µM", "setting": "MNK1", "result": 87, "unit": "%"}, {"measurement": "remaining activity at 1 µM", "setting": "MNK2", "result": 90, "unit": "%"}, {"measurement": "remaining activity at 1 µM", "setting": "NEK2a", "result": 86, "unit": "%"}, {"measurement": "remaining activity at 1 µM", "setting": "PAK4", "result": 78, "unit": "%"}, {"measurement": "remaining activity at 1 µM", "setting": "PDGFRA", "result": 70, "unit": "%"}, {"measurement": "remaining activity at 1 µM", "setting": "PKBa", "result": 90, "unit": "%"}, {"measurement": "remaining activity at 1 µM", "setting": "PLK1", "result": 90, "unit": "%"}, {"measurement": "remaining activity at 1 µM", "setting": "PRK2", "result": 86, "unit": "%"}, {"measurement": "remaining activity at 1 µM", "setting": "RIPK2", "result": 92, "unit": "%"}, {"measurement": "remaining activity at 1 µM", "setting": "RSK1", "result": 109, "unit": "%"}, {"measurement": "remaining activity at 1 µM", "setting": "S6K1", "result": 89, "unit": "%"}, {"measurement": "remaining activity at 1 µM", "setting": "SRPK1", "result": 99, "unit": "%"}, {"measurement": "remaining activity at 1 µM", "setting": "SmMLCK", "result": 99, "unit": "%"}, {"measurement": "remaining activity at 1 µM", "setting": "TAO1", "result": 111, "unit": "%"}, {"measurement": "remaining activity at 1 µM", "setting": "TGFBR1", "result": 87, "unit": "%"}]}
